Here are results for 44 compounds from patent publication US10221129B2, “Inhibitors of human immunodeficiency virus replication” (ViiV HEALTHCARE UK (NO.5) LIMITED, priority 2015, dated 2019).

For data set [1], the system named is recombinant NL4-3 virus (nef section replaced with Renilla luciferase gene) in MT-2 cells. Kind of data set: HIV cell culture assay (antiviral activity, luciferase readout). The data set is classed as cell-based. The conditions noted are these: Renilla, NL43, MT-2 cells infected for 4-5 days with recombinant NL4-3 Renilla luciferase virus. The method, then:
HIV cell culture assay—MT-2 cells, 293T cells and the proviral DNA clone of NL4-3 virus were obtained from the NIH AIDS Research and Reference Reagent Program. MT-2 cells were propagated in RPMI 1640 media supplemented with 10% heat inactivated fetal bovine serum (FBS), 100 jag/ml penicillin G and up to 100 units/mL streptomycin. The 293T cells were propagated in DMEM media supplemented with 10% heat inactivated FBS, 100 μg/mL penicillin G and 100 μg/mL streptomycin. A recombinant NL4-3 proviral clone, in which a section of the nef gene was replaced with the Renilla luciferase gene, was used to make the reference virus used in these studies. The recombinant virus was prepared through transfection of the recombinant NL4-3 proviral clone into 293T cells using Transit-293 Transfection Reagent from Mirus Bio LLC (Madison, Wis.). Supernatant was harvested after 2-3 days and the amount of virus present was titered in MT-2 cells using luciferase enzyme activity as a marker by measuring luciferase enzyme activity. Luciferase was quantitated using the EnduRen Live Cell Substrate from Promega (Madison, Wis.). Antiviral activities of compounds toward the recombinant virus were quantified by measuring luciferase activity in MT-2 cells infected for 4-5 days with the recombinant virus in the presence of serial dilutions of the compound.
(Johnson V A, Byington R T. Infectivity Assay. In Techniques in HIV Research. ed. Aldovini A, Walker B D. 71-76. New York: Stockton Press. 1990).

Data set [2] can be described thus: Compound cytotoxicity, XTT-based colorimetric assay. The conditions noted are these: human, uninfected MT2 cells, day 4, XTT. Type of data set: cell-based. The method, then: Compound cytotoxicity and the corresponding CC50 values were determined using the same protocol as described in the antiviral assay except that uninfected cells were used. Cytotoxicity was assessed on day 4 in uninfected MT2 cells by using a XTT (2,3-bis[2-Methoxy-4-nitro-5-sulfophenyl]-2H-tetrazolium-5-carboxyanilide inner salt)-based colorimetric assay (Sigma-Aldrich, St Louis, Mo.).
A general note: Tetrazolium assays rely on reduction of a dye to a coloured formazan, in cell work by metabolically active cells.

Molecules are shown by their SMILES.

What is called EC50 is the concentration giving half of the maximal effect. As usually defined, the CC50 is the concentration that lowers cell viability or growth by half. On to `COc1ccc(N(C)C(=O)[C@H](Cc2cc(F)cc(F)c2)NC(=O)NS(=O)(=O)N2CCC(F)(F)CC2)cc1F` [AW-3], for which, in data set [1], the EC50 amounted to 980 nM. Further, the CC50 at 4 days in data set [2] is > 100 µM.
For `Cc1cc(N(C)C(=O)[C@H](Cc2cc(F)cc(F)c2)NC(=O)NS(=O)(=O)N2CCc3cccnc32)ccc1Cl` [BB-16], the half-maximal effective concentration (EC50) in data set [1] worked out at 30 nM. In data set [2], this compound displayed a CC50 at 4 days of 56.3 µM.
Turning to `Cc1cc(N(C)C(=O)[C@H](Cc2cc(F)cc(F)c2)NC(=O)NS(=O)(=O)N2CCc3cccnc32)ccc1F` [BB-17], the EC50 in data set [1] turned out to be 70 nM. In addition, half-maximal cytotoxicity in data set [2] (CC50 at 4 days) was put at 91.2 µM.
Regarding `COc1ccc(N(C)C(=O)[C@H](Cc2cc(F)cc(F)c2)NC(=O)NS(=O)(=O)N2CCc3cccnc32)cn1` [GW-11], the half-maximal effective concentration (EC50) in data set [1] stood at 90 nM. Besides, the CC50 at 4 days in data set [2] is > 100 µM.
For the compound `COc1ccc(N(C)C(=O)[C@H](Cc2ccccc2)NC(=O)NS(=O)(=O)Nc2ccc(OC(C)C)cc2)cc1` [CA-40], the EC50 in data set [1] stood at 220 nM. Further, the CC50 at 4 days in data set [2] is > 100 µM.
The matching figures for `COc1ccc(N(C)C(=O)[C@H](Cc2ccccc2)NC(=O)NS(=O)(=O)NCCc2ccccc2)cc1` [JB-33]: 680 nM and > 100 µM.
In the same order, the values of `COc1ccc(N(C)C(=O)[C@H](Cc2ccccc2)NC(=O)NS(=O)(=O)Nc2ccc(C)c(C)c2)cc1` [CA-13] are 60 nM and > 100 µM.
Regarding `CN(C(=O)[C@H](Cc1cc(F)cc(F)c1)NC(=O)NS(=O)(=O)N1CCc2nccnc21)c1ccc2scnc2c1` [ZY-22], the EC50 in data set [1] came out at 520 nM. The CC50 at 4 days in data set [2] was > 100 µM.
Turning to `CCOc1ccc(N(CC)C(=O)[C@H](Cc2ccccc2)NC(=O)NS(=O)(=O)N2CCc3cc(C)ccc32)cc1` [JB-70], in data set [1], the EC50 was found to be 100 nM. The CC50 at 4 days in data set [2] is > 33.3 µM.
On to `COc1ccc(N(C)C(=O)[C@H](Cc2ccccc2)NC(=O)NS(=O)(=O)Nc2cccc(NS(C)(=O)=O)c2)cc1` [CA-46], for which, in data set [1], the EC50 came out at 11600 nM. Moreover, the CC50 at 4 days in data set [2] is > 100 µM.
For the compound `CCN(CC)S(=O)(=O)NC(=O)N[C@@H](Cc1cc(F)cc(F)c1)C(=O)N(C)c1ccc(OC(F)F)cc1` [BB-36], the EC50 in data set [1] was 160 nM. Besides, in data set [2], the CC50 at 4 days is > 100 µM.
Take `CN(C(=O)[C@H](Cc1cc(F)cc(F)c1)NC(=O)NS(=O)(=O)N1CCCc2ccccc21)c1ccc2scnc2c1` [VN-5]: in data set [1], the EC50 was 40 nM. In addition, the CC50 at 4 days in data set [2] worked out at 95.9 µM.
With `COc1ccc(N(C)C(=O)[C@H](Cc2ccccc2)NC(=O)NS(=O)(=O)N2CC(c3ccccc3)C2)cc1` [JB-8], in data set [1], the EC50 came to 2690 nM. In data set [2], the CC50 at 4 days was > 100 µM.
Regarding `COc1ccc(N(C)C(=O)[C@H](Cc2ccccc2)NC(=O)NS(=O)(=O)Nc2ccccc2)cc1` [JB-4], in data set [1], the concentration giving a half-maximal response (EC50) is 140 nM. The CC50 at 4 days in data set [2] was > 100 µM.
With `CCc1ccc(N(C)C(=O)[C@H](Cc2cc(F)cc(F)c2)NC(=O)NS(=O)(=O)N(C)C)cn1` [GW-17], the EC50 in data set [1] stood at 100 nM. The CC50 at 4 days in data set [2] is > 100 µM.
Regarding `COc1ccc(N(C)C(=O)[C@H](Cc2ccccc2)NC(=O)NS(=O)(=O)Nc2ccc(Cl)c(Cl)c2)cc1` [CA-12], the EC50 in data set [1] worked out at 90 nM. Moreover, in data set [2], the CC50 at 4 days was > 33.3 µM.
With `CN(C)C(=O)[C@@H]1CCCN1S(=O)(=O)NC(=O)N[C@@H](Cc1cc(F)cc(F)c1)C(=O)N(C)c1ccc2scnc2c1` [BB-22], in data set [1], the EC50 was 380 nM. For the same compound, the CC50 at 4 days in data set [2] was > 100 µM.
As for `COc1ccc(N(C)C(=O)[C@H](Cc2ccccc2)NC(=O)NS(=O)(=O)N2CCCc3ccccc32)cc1` [JB-2], the EC50 in data set [1] was 110 nM. Also, the CC50 at 4 days in data set [2] is > 33.3 µM.
The matching figures for `COc1ccc(N(C)C(=O)[C@H](Cc2ccccc2)NC(=O)NS(=O)(=O)N(C)c2ccccc2Cl)cc1` [JB-6]: 660 nM and > 100 µM.
The matching figures for `Cc1ccc(N(C)C(=O)[C@H](Cc2cc(F)cc(F)c2)NC(=O)NS(=O)(=O)N2CCc3cccnc32)cc1Cl` [BB-20]: 60 nM and 60.7 µM.
As for `COCCN(C)S(=O)(=O)NC(=O)N[C@@H](Cc1cc(F)cc(F)c1)C(=O)N(C)c1ccc2scnc2c1` [CA-149], the EC50 in data set [1] is 80 nM. Moreover, the CC50 at 4 days in data set [2] is > 100 µM.
For the compound `COc1ccc(N(C)C(=O)[C@H](Cc2ccccc2)NC(=O)NS(=O)(=O)NCc2ccccc2F)cc1` [JB-38], the EC50 in data set [1] came to 1600 nM. The half-maximal cytotoxic concentration (CC50) at 4 days in data set [2] was > 100 µM.
Take `COc1ccc(N(C)C(=O)[C@H](Cc2ccccc2)NC(=O)NS(=O)(=O)Nc2nccc3ccccc23)cc1` [JB-32]: the EC50 in data set [1] was found to be 1450 nM. In addition, in data set [2], the CC50 at 4 days was > 100 µM.
In the same order, the values of `COc1ccc(N(C)C(=O)[C@H](Cc2ccccc2)NC(=O)NS(=O)(=O)N2CCc3ccccc3C2)cc1` [JB-7] are 200 nM and > 100 µM.
Consider `COc1ccc(N(C)C(=O)[C@H](Cc2ccccc2)NC(=O)NS(=O)(=O)Nc2ccc(C)cc2)cc1` [JB-26], for which the EC50 in data set [1] was determined as 40 nM. The CC50 at 4 days in data set [2] was > 100 µM.
Turning to `CN(C(=O)[C@H](Cc1cc(F)cc(F)c1)NC(=O)NS(=O)(=O)N1CC[C@H](O)C1)c1ccc2scnc2c1` [VN-26], in data set [1], the EC50 is 110 nM. In addition, in data set [2], half-maximal cytotoxicity (CC50 at 4 days) was put at 20 µM.
The matching figures for `COc1ccc(N(C)C(=O)[C@H](Cc2ccccc2)NC(=O)NS(=O)(=O)Nc2cc(Cl)ccc2F)cc1` [JB-49]: 200 nM and > 100 µM.
Regarding `CN(C(=O)[C@H](Cc1cc(F)cc(F)c1)NC(=O)N(C)S(=O)(=O)N1CCc2cccnc21)c1ccc2scnc2c1` [BB-25], the EC50 in data set [1] was 530 nM. Moreover, the CC50 at 4 days in data set [2] was > 33.3 µM.
The matching figures for `CN(C(=O)[C@H](Cc1cc(F)cc(F)c1)NC(=O)NS(=O)(=O)N1CCc2cccnc21)c1ccc2sc(=O)n(C)c2c1` [GW-19]: 60 nM and > 100 µM.
Consider `CN(C(=O)[C@H](Cc1cc(F)cc(F)c1)NC(=O)NS(=O)(=O)N1CCc2cc(F)ccc21)c1ccc2scnc2c1` [ZY-12], for which the EC50 in data set [1] was 110 nM. The CC50 at 4 days in data set [2] was > 100 µM.
In the same order, the values of `COc1ccc(N(C)C(=O)[C@H](Cc2cc(F)cc(F)c2)NC(=O)NS(=O)(=O)N2CCc3ccncc32)cc1` [BB-10] are 1080 nM and > 100 µM.
In the case of `COc1ccc(N(C)C(=O)[C@H](Cc2cc(F)cc(F)c2)NC(=O)NS(=O)(=O)N2CCC[C@@H]2C(=O)N(C)C)cc1` [BB-27], in data set [1], the EC50 amounted to 970 nM. Moreover, the CC50 at 4 days in data set [2] is > 100 µM.
`CN(C(=O)[C@H](Cc1cc(F)cc(F)c1)NC(=O)NS(=O)(=O)N1CCc2ccnnc21)c1ccc2scnc2c1` [VN-17]: in data set [1], the EC50 amounted to 70 nM. The CC50 at 4 days in data set [2] is > 100 µM.
In the same order, the values of `CN(C(=O)[C@H](Cc1cc(F)cc(F)c1)NC(=O)NS(=O)(=O)N1CCc2cccnc21)c1cnc2scnc2c1` [GW-16] are 280 nM and > 100 µM.
As for `COc1ccc(N(C)C(=O)[C@H](Cc2ccccc2)NC(=O)NS(=O)(=O)NCc2ccccc2)cc1` [JB-56], the EC50 in data set [1] was determined as 1870 nM. The CC50 at 4 days in data set [2] is > 100 µM.
As to `COc1ccc(N(C)C(=O)[C@H](Cc2ccccc2)NC(=O)NS(=O)(=O)Nc2ccccc2C(N)=O)cc1` [CA-22], in data set [1], the EC50 is 2510 nM. Moreover, the CC50 at 4 days in data set [2] is > 100 µM.
With `CC(C)CNS(=O)(=O)NC(=O)N[C@@H](Cc1cc(F)cc(F)c1)C(=O)N(C)c1ccc2scnc2c1` [CA-144], the EC50 in data set [1] is 40 nM. Moreover, in data set [2], the CC50 at 4 days was > 100 µM.
As to `CN(C(=O)[C@H](Cc1cc(F)cc(F)c1)NC(=O)NS(=O)(=O)N1CCc2cc(Br)cnc21)c1ccc2scnc2c1` [ZY-21], the EC50 in data set [1] stood at 490 nM. Besides, the CC50 at 4 days in data set [2] is > 100 µM.
The matching figures for `CCOc1ccc(N(CC)C(=O)[C@H](Cc2ccccc2)NC(=O)NS(=O)(=O)N2CCc3cc(OC)cc(C)c32)cc1` [JB-74]: 1120 nM and > 100 µM.
Turning to `COc1ccc(N(C(=O)[C@H](Cc2cc(F)cc(F)c2)NC(=O)NS(=O)(=O)N2CCc3cccnc32)C2CC2)cc1` [BB-32], in data set [1], the EC50 is 50 nM. In data set [2], this compound yielded a CC50 at 4 days of 62.6 µM.
`Cc1ccc(N(C)C(=O)[C@H](Cc2cc(F)cc(F)c2)NC(=O)NS(=O)(=O)N2CCc3cccnc32)cn1` [GW-2]: the EC50 in data set [1] was 70 nM. Moreover, in data set [2], the CC50 at 4 days is > 100 µM.
Consider `Cc1cc(N(C)C(=O)[C@H](Cc2cc(F)cc(F)c2)NC(=O)NS(=O)(=O)N2CCc3cccnc32)ccc1C#N` [BB-15], for which the EC50 in data set [1] was found to be 460 nM. Besides, the CC50 at 4 days in data set [2] was > 100 µM.
Regarding `O=C(N[C@@H](Cc1cc(F)cc(F)c1)C(=O)N(CCOCc1ccccc1)c1ccc2scnc2c1)NS(=O)(=O)N1CCc2cccnc21` [BB-34], the EC50 in data set [1] amounted to 40 nM. The compound also returned a CC50 at 4 days in data set [2] of 70.6 µM.
Take `Cc1nc2cc(N(C)C(=O)[C@H](Cc3cc(F)cc(F)c3)NC(=O)NS(=O)(=O)N3CCc4cccnc43)ccc2s1` [ZY-23]: the EC50 in data set [1] stood at 80 nM. The CC50 at 4 days in data set [2] was > 100 µM.
